Results published in the NIST ThermoML archive (doi:10.1016/j.jct.2019.04.010).
Numbers after ± are expanded uncertainties.

Experiment: xn = mol fraction of the nth substance listed
Details: 100 kPa, Liquid; for mass density: Vibrating tube method; for viscosity: Concentric cylinders viscometry

CCCCn1cc[n+](C)c1.O=[N+]([O-])[O-] [1-butyl-3-methylimidazolium nitrate] + CC(C)O
Details	mass density, 308.15 K [kg/m3]	mass density, 313.15 K [kg/m3]	mass density, 318.15 K [kg/m3]	mass density, 323.15 K [kg/m3]	viscosity, 313.15 K [mPa·s]	viscosity, 318.15 K [mPa·s]	viscosity, 323.15 K [mPa·s]
x1 = 0.0815	841.9 ± 1.8	837.9 ± 1.8	833.7 ± 1.9	829.5 ± 1.9	2.53 ± 0.51	2.25 ± 0.45	2 ± 0.4
x1 = 0.1596	894.8 ± 1.6	891.1 ± 1.6	887.1 ± 1.6	883.3 ± 1.6	3.95 ± 0.79	3.53 ± 0.71	3.09 ± 0.62
x1 = 0.2405	940.1 ± 1.4	936.5 ± 1.4	932.8 ± 1.4	929.2 ± 1.4	5.7 ± 1.1	5.15 ± 1	4.61 ± 0.92
x1 = 0.3495	989.6 ± 1.3	986.4 ± 1.3	982.9 ± 1.3	979.5 ± 1.3	8.96 ± 1.8	7.91 ± 1.6	7.17 ± 1.4
x1 = 0.4405	1023.7 ± 1.2	1020.6 ± 1.2	1017.3 ± 1.2	1014.1 ± 1.2	12.29 ± 2.5	10.89 ± 2.2	9.8 ± 2
x1 = 0.5607	1060.8 ± 1.2	1057.8 ± 1.2	1054.7 ± 1.2	1051.7 ± 1.2	17.93 ± 3.6	15.75 ± 3.1	14.17 ± 2.8
x1 = 0.6506	1084.2 ± 1.2	1081.3 ± 1.2	1078.3 ± 1.2	1075.4 ± 1.2	23.42 ± 4.7	20.46 ± 4.1	18.14 ± 3.6
x1 = 0.7413	1104.7 ± 1.2	1101.7 ± 1.2	1098.9 ± 1.2	1096.1 ± 1.2	30.6 ± 6.1	26.05 ± 5.2	23.09 ± 4.6
x1 = 0.8515	1126 ± 1.3	1123.2 ± 1.3	1120.5 ± 1.3	1117.8 ± 1.3	42.3 ± 8.5	35.1 ± 7	30.31 ± 6.1
x1 = 0.9396	1140.6 ± 1.4	1137.8 ± 1.4	1135 ± 1.4	1132.5 ± 1.4	58.7 ± 12	45.9 ± 9.2	37.81 ± 7.6
x1 = 1	1149.3 ± 1.5	1146.5 ± 1.5	1143.8 ± 1.4	1141.2 ± 1.4	75.12 ± 15	56.28 ± 11	45.17 ± 9.1
